Laboratory results from patent publication EP0937779A2, “Cell damage marker” (ORIENTAL YEAST CO., LTD., priority 1998, dated 1999).
Where two headings read alike, the source gives them in different places.

Columns and labels:
Format in all cases: biochemical
[1] = biological target: PGAM-B standard (based on pooled sera) (Homo sapiens, UniProt P18669); test: Effect of potassium tetrathionate on PGAM-B, automatic analysis method (NADH reduction rate assay); settings: for remaining activity at 1900 µM: final potassium tetrathionate concentration 1.9 mM; for remaining activity at 1900 µM / remaining activity at 3800 µM / remaining activity at 7600 µM: 5-min reaction, read-out: Effect of potassium tetrathionate over PGAM-B (residual activity, 0 mM = 100); for remaining activity at 3800 µM: final potassium tetrathionate concentration 3.8 mM; for remaining activity at 7600 µM: final potassium tetrathionate concentration 7.6 mM
Procedure: (§1) The reagent 1 (R-1; 250 µl) was mixed with a culture medium sample (5 µl), and the resulting mixture was then left to stand for 5 minutes. By subsequently using the reagent 2 (R-2), the PGAM activity was assayed.
(§2) Because the reagent 2 (R-2) contained glycerate-3-P (substrate), the reaction was initiated by adding 41 µl of the reagent 2. About 1.5 minutes after the addition of the reagent 2, the assay was started.
(§3) By using an automatic analyzer of Hitachi 7150 and by presetting the assay code to RATE-A: 32-39 and the assay temperature to 37 °C, the decrease of absorbance A at 340 nm was determined on the basis of the reduction of NADH for about 1.5 minutes. Additionally, a sub-wave length was set at 405 nm for the determination. Furthermore, the value of a conventionally known cell damage marker LDH (lactate dehydrogenase) is shown concurrently.
(§4) Prior to the assay of B-PGAM in the cell culture medium, the effect of potassium tetrathionate on PGAM-B and PGAM-M was examined by the automatic analysis method. As the sample, a type-B standard and a type-M standard (both based on pooled sera) were used. These standards were diluted with physiological saline to prepare 1/1 to 1/8 samples. Various concentrations of potassium tetrathionate were added to these samples for 5-min reaction, and subsequently, the amounts of the type-B and type-M PGAMs were determined by utilizing the automatic analysis method.
(§5) By using the reagents of Example 2, the amounts of PGAM-B and PGAM-M were individually determined by the automatic analysis method, and the results are shown below in Table 4. […]

[2] = biological target: PGAM-M standard (based on pooled sera) (Homo sapiens, UniProt P15259); test: Effect of potassium tetrathionate on PGAM-M, automatic analysis method (NADH reduction rate assay)
Procedure: as §1, §2, §3, §4, §5

type-M isozyme = type-M isozyme (Homo sapiens, UniProt P15259); test: Inhibition experiment over purified PGAM isozymes, type-M; settings: tetrathionic acid used as the PGAM inhibitor
Excerpt: (§6) The method for assaying PGAM in accordance with the invention will now be described about the case of the type-B isozyme. The method for assaying the type-B isozyme comprises treating a sample with a PGAM inhibitor to inactivate specific isozymes and assaying the remaining PGAM activity. […] By adding tetrathionic acid to serum to inactivate the type-M isozyme and subsequently assaying the residual PGAM activity, therefore, the type-B isozyme can be assayed separately.
(§7) At an inhibition experiment over purified PGAM isozymes, only 50 % of the type-MB isozyme is inactivated through the treatment with tetrathionic acid, so 50 % of the activity remains. Because the PGAM activity in normal serum and brain tissue is nearly totally derived from the type-B isozyme in a practical sense, the residual activity of the type-MB isozyme is negligible in biological samples.

type-MB isozyme = type-MB isozyme (Homo sapiens, UniProt P15259); test: Inhibition experiment over purified PGAM isozymes, type-MB; settings: treatment with tetrathionic acid
Excerpt: as §6, §7

type-B isozyme = type-B isozyme (Homo sapiens, UniProt P18669); test: Inhibition experiment over purified PGAM isozymes, type-B; settings: tetrathionic acid used as the PGAM inhibitor
Excerpt: as §6, §7

[3] = dilution ratio 1/1, 0 mM = 100 (183U/L)
[4] = dilution ratio 1/2, 0 mM = 100 (91U/L)
[5] = dilution ratio 1/4, 0 mM = 100 (46U/L)
[6] = dilution ratio 1/8, 0 mM = 100 (22U/L)

PGAM-M standard (based on pooled sera), sequence (P15259 whole entry): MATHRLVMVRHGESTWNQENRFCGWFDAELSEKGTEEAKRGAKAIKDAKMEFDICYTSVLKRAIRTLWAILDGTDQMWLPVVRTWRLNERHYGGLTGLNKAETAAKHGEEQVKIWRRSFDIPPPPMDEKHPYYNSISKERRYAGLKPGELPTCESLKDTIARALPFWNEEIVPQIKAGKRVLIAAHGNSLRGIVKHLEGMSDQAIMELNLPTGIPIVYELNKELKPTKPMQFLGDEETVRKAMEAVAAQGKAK
PGAM-B standard (based on pooled sera), sequence (P18669 whole entry): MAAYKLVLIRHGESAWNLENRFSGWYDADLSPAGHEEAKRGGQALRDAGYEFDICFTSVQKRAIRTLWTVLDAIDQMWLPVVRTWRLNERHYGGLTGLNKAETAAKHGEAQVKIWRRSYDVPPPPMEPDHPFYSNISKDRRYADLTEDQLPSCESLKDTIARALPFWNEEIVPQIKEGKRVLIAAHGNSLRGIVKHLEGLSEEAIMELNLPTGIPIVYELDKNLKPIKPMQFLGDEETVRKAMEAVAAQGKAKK
type-M isozyme, sequence (P15259 whole entry): as the sequence (P15259 whole entry) above
type-MB isozyme, sequence (P15259 whole entry): as above
type-MB isozyme, sequence (P18669 whole entry, further chain): as the sequence (P18669 whole entry) above
type-B isozyme, sequence (P18669 whole entry): as above

Row | Compound | remaining activity at 1900 µM [1, 3] [%] | remaining activity at 1900 µM [1, 4] [%] | remaining activity at 1900 µM [1, 5] [%] | remaining activity at 1900 µM [1, 6] [%] | remaining activity at 3800 µM [1, 3] [%] | remaining activity at 3800 µM [1, 4] [%] | remaining activity at 3800 µM [1, 5] [%] | remaining activity at 3800 µM [1, 6] [%] | remaining activity at 7600 µM [1, 3] [%] | remaining activity at 7600 µM [1, 4] [%] | remaining activity at 7600 µM [1, 5] [%] | remaining activity at 7600 µM [1, 6] [%] | type-B isozyme influenced by potassium tetrathionate (summary in words) ([1]; summary of Table 4) | remaining activity at 1900 µM ([2]; final potassium tetrathionate concentration 1.9 mM, dilution ratio 1/1, 5-min reaction, 0 mM = 100 (2727U/L), read-out: Effect of potassium tetrathionate over PGAM-M (residual activity, 0 mM = 100)) [%] | remaining activity at 3800 µM ([2]; final potassium tetrathionate concentration 3.8 mM, dilution ratio 1/1, 5-min reaction, 0 mM = 100 (2727U/L), read-out: Effect of potassium tetrathionate over PGAM-M (residual activity, 0 mM = 100)) [%] | remaining activity at 7600 µM ([2]; final potassium tetrathionate concentration 7.6 mM, dilution ratio 1/1, 5-min reaction, 0 mM = 100 (2727U/L), read-out: Effect of potassium tetrathionate over PGAM-M (residual activity, 0 mM = 100)) [%] | type-M isozyme inactivated with potassium tetrathionate (summary in words) ([2]; summary of Table 4) | type-M isozyme inactivated (type-M isozyme) [%] | activity of the type-MB isozyme that remains (type-MB isozyme) [%] | type-B isozyme inactivated (in words) (type-B isozyme)
1 | O=S(=O)([O-])SSS(=O)(=O)[O-].[K+].[K+] [potassium tetrathionate] | 98 | 98 | 97 | 93 | 92 | 91 | 86 | 93 | 81 | 80 | 59 | 75 | absolutely never influenced | 0 | 0 | 0 | specifically inactivated |  |  | 
2 | O=S(=O)(O)SSS(=O)(=O)O [tetrathionic acid] |  |  |  |  |  |  |  |  |  |  |  |  |  |  |  |  |  | ~100 | 50 | hardly inactivated
